Square brackets hold non-standard residues; d marks the D form. Peptide text beside a SMILES is read from it. * marks the point of attachment. hArg = N=C(N)NCCCC[C@H](N)C(=O)O; Nle = CCCC[C@H](N)C(=O)O; Orn = NCCC[C@H](N)C(=O)O; Bz = O=C(c1ccccc1)*

From patent EP0153845A2, “CRF analogs” (THE SALK INSTITUTE FOR BIOLOGICAL STUDIES, priority 1984, dated 1985) come the findings set out here.

Assay [1] has as its target T1, cultured rat pituitary cells (Rattus norvegicus, UniProt P35353).
T1 sequence (P35353 24-415): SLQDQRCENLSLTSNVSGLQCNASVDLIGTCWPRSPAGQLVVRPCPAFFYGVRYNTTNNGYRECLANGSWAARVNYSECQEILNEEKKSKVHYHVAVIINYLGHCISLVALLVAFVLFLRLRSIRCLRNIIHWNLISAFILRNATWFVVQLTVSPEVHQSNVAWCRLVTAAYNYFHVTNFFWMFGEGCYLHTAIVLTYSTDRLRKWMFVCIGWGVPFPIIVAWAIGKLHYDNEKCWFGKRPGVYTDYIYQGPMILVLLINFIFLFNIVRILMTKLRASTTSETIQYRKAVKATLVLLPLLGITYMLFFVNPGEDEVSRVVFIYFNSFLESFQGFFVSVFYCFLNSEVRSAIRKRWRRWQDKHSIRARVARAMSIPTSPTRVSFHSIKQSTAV
Briefly: Stimulation of ACTH and β-endorphin secretion by cultured rat pituitary cells (general procedure of Example III). The format is cell-based. Particulars: for secretion of ACTH and β-END-LI: general procedure of Example III. The method, then: The synthetic peptide AHC and oCRF were examined for their effects on the secretion of ACTH and B-endorphin in vitro and was also in vivo. The potency of synthetic oCRF to stimulate the secretion of ACTH and β-endorphin by cultured rat pituitary cells was measured using the procedure as generally set forth in Endocrinology, 91, 562 (1972). […] In.vivo testing is carried out using the general procedure set forth in C. Rivier et al., Science, 218, 377 (1982).

Assay [2] in a line: Lowering of blood pressure, in vivo testing by the general procedure of Example III.

As to `CC[C@H](C)[C@H](NC(=O)[C@@H](NC(=O)[C@H](CC(=O)O)NC(=O)[C@H](CC(C)C)NC(=O)[C@H](CC(C)C)NC(=O)[C@H](CC(C)C)NC(=O)[C@H](CCCNC(=N)N)NC(=O)[C@H](CC(N)=O)NC(=O)[C@H](CC(N)=O)NC(=O)[C@H](C)NC(=O)[C@H](C)NC(=O)[C@H](CCC(N)=O)NC(=O)[C@H](CCC(=O)O)NC(=O)[C@H](CCCCN)NC(=O)[C@H](CCC(=O)O)NC(=O)[C@H](CCCCN)NC(=O)[C@H](CCC(=O)O)NC(=O)[C@H](CCC(N)=O)NC(=O)[C@H](CCCCN)NC(=O)[C@H](CCCNC(=N)N)NC(=O)[C@H](C)NC(=O)[C@H](CCC(=O)O)NC(=O)[C@@H](NC(=O)[C@H](CCSC)NC(=O)[C@H](CCCCN)NC(=O)[C@H](CCCNC(=N)N)NC(=O)[C@H](CC(C)C)NC(=O)[C@H](CC(C)C)NC(=O)[C@H](CCC(=O)O)NC(=O)[C@H](CC(C)C)NC(=O)[C@H](CO)NC(=O)[C@H](CC(C)C)NC(=O)[C@H](CC(=O)O)NC(=O)[C@@H](NC(=O)[C@H](CO)NC(=O)[C@@H](NC(=O)[C@@H]1CCCN1C(=O)[C@@H]1CCCN1C(=O)CNC(=O)[C@@H]1CCC(=O)N1)[C@@H](C)CC)[C@@H](C)CC)[C@@H](C)CC)[C@@H](C)CC)C(N)=O`, the “secretion of ACTH and β-END-LI” value in assay [1] is recorded as “stimulates”. Also, the “lowering of blood pressure” value in assay [2] is “very significant lowering of blood pressure”.

For the compound `CCCC[C@H](NC(=O)[C@@H](NC(=O)[C@H](CC(C)C)NC(=O)[C@H](CC(=O)O)NC(=O)[C@H](CC(C)C)NC(=O)[C@H](CO)NC(=O)[C@@H](NC(=O)[C@@H]1CCCN1C(=O)[C@@H]1CCCN1C(=O)[C@H](CCC(=O)O)NC(=O)CNC(=O)c1ccccc1)[C@@H](C)CC)[C@@H](C)O)C(=O)N[C@@H](Cc1c[nH]cn1)C(=O)N[C@@H](CC(C)C)C(=O)N[C@@H](CC(C)C)C(=O)N[C@@H](CCCNC(=N)N)C(=O)N[C@@H](CCC(=O)O)C(=O)N[C@H](C(=O)N[C@@H](CC(C)C)C(=O)N[C@@H](CCC(=O)O)C(=O)N[C@@H](CCSC)C(=O)N[C@@H](C)C(=O)N[C@@H](CCCNC(=N)N)C(=O)N[C@@H](C)C(=O)N[C@@H](CCC(=O)O)C(=O)N[C@@H](CCC(N)=O)C(=O)N[C@@H](CC(C)C)C(=O)N[C@@H](C)C(=O)N[C@@H](CCC(=O)O)C(=O)N[C@@H](CCC(N)=O)C(=O)N[C@@H](C)C(=O)N[C@@H](Cc1c[nH]cn1)C(=O)N[C@@H](CO)C(=O)N[C@@H](CC(N)=O)C(=O)N[C@@H](CCCNC(=N)N)C(=O)N[C@@H](CCCNC(=N)N)C(=O)N[C@@H](CC(C)C)C(=O)N[C@@H](CCSC)C(=O)N[C@@H](CCC(=O)O)C(=O)N[C@H](C(=O)N[C@H](C(N)=O)[C@@H](C)CC)[C@@H](C)CC)C(C)C` (Bz-GEPPISLDLT[Nle]HLLREVLEMARAEQLAEQAHSNRRLMEII-NH2), the “secretion of ACTH and β-END-LI” value in assay [1] is “stimulates”. In addition, the “lowering of blood pressure” value in assay [2] was “very significant lowering of blood pressure”.

Consider `CC[C@H](C)[C@H](NC(=O)[C@@H]1CCCN1C(=O)[C@@H]1CCCN1)C(=O)N[C@@H](CO)C(=O)N[C@@H](CC(C)C)C(=O)N[C@@H](CC(=O)O)C(=O)N[C@@H](CC(C)C)C(=O)N[C@H](C(=O)N[C@@H](CC(C)C)C(=O)N[C@@H](Cc1c[nH]cn1)C(=O)N[C@@H](CC(C)C)C(=O)N[C@@H](CC(C)C)C(=O)N[C@@H](CCCNC(=N)N)C(=O)N[C@@H](CCC(=O)O)C(=O)N[C@@H](CCSC)C(=O)N[C@@H](CC(C)C)C(=O)N[C@@H](CCC(=O)O)C(=O)N[C@@H](CCSC)C(=O)N[C@@H](CCC(=O)O)C(=O)N[C@@H](CCCN)C(=O)N[C@@H](C)C(=O)N[C@@H](CCC(=O)O)C(=O)N[C@@H](CCC(N)=O)C(=O)N[C@@H](CCC(=O)O)C(=O)N[C@@H](C)C(=O)N[C@@H](CCC(=O)O)C(=O)N[C@@H](CCC(N)=O)C(=O)N[C@@H](C)C(=O)N[C@@H](C)C(=O)N[C@@H](CC(C)C)C(=O)N[C@@H](CC(N)=O)C(=O)N[C@@H](CCCNC(=N)N)C(=O)N[C@@H](CCCCNC(=N)N)C(=O)N[C@@H](CC(C)C)C(=O)N[C@@H](CC(C)C)C(=O)N[C@@H](CCC(=O)O)C(=O)N[C@@H](CCC(=O)O)C(=O)N[C@@H](C)C(N)=O)[C@@H](C)O` (H-PPISLDLTLHLLREMLEME[Orn]AEQEAEQAALNR[hArg]LLEEA-NH2), for which, in assay [1], the “secretion of ACTH and β-END-LI” value is on record as “stimulates”. For the same compound, the “lowering of blood pressure” value in assay [2] was “very significant lowering of blood pressure”.

With `CCCC[C@H](NC(=O)[C@H](CCC(=O)O)NC(=O)[C@H](CC(C)C)NC(=O)[C@H](CCCC)NC(=O)[C@H](CCC(=O)O)NC(=O)[C@H](CCCNC(=N)N)NC(=O)[C@H](CC(C)C)NC(=O)[C@H](CC(C)C)NC(=O)[C@H](Cc1c[nH]cn1)NC(=O)[C@H](Cc1ccccc1)NC(=O)[C@@H](NC(=O)[C@H](CC(C)C)NC(=O)[C@H](CC(=O)O)NC(=O)[C@H](CC(C)C)NC(=O)[C@H](CO)NC(=O)[C@@H](NC(=O)[C@@H]1CCCN1C(=O)[C@H]1CCCN1)[C@@H](C)CC)[C@@H](C)O)C(=O)N[C@@H](C)C(=O)N[C@@H](CCCCN)C(=O)N[C@@H](C)C(=O)N[C@@H](CCC(=O)O)C(=O)N[C@@H](CCC(N)=O)C(=O)N[C@@H](CCC(=O)O)C(=O)N[C@@H](C)C(=O)N[C@@H](CCC(=O)O)C(=O)N[C@@H](CCC(N)=O)C(=O)N[C@@H](C)C(=O)N[C@@H](C)C(=O)N[C@@H](CC(C)C)C(=O)N[C@@H](CC(N)=O)C(=O)N[C@@H](CCCNC(=N)N)C(=O)N[C@@H](CC(C)C)C(=O)N[C@@H](CC(C)C)C(=O)N[C@@H](CC(C)C)C(=O)N[C@@H](CCC(=O)O)C(=O)N[C@@H](CCC(=O)O)C(=O)N[C@@H](C)C(N)=O` [[D-Pro^4, Nle^18,21]-AHC(4-41)] (H-[dP]PISLDLTFHLLRE[Nle]LE[Nle]AKAEQEAEQAALNRLLLEEA-NH2), the “lowering of blood pressure” value in assay [2] is listed as “very significant lowering of blood pressure”.

On to `CCCC[C@H](NC(=O)[C@H](CCC(=O)O)NC(=O)[C@H](CC(C)C)NC(=O)[C@@H](NC(=O)[C@H](CCC(=O)O)NC(=O)[C@H](CCCNC(=N)N)NC(=O)[C@H](CC(C)C)NC(=O)[C@H](CC(C)C)NC(=O)[C@H](Cc1c[nH]cn1)NC(=O)[C@H](Cc1ccccc1)NC(=O)[C@@H](NC(=O)[C@H](CC(C)C)NC(=O)[C@H](CC(=O)O)NC(=O)[C@H](CC(C)C)NC(=O)[C@H](CO)NC(=O)[C@@H](NC(=O)[C@@H]1CCCN1C(=O)[C@H]1CCCN1)[C@@H](C)CC)[C@@H](C)O)C(C)C)C(=O)N[C@@H](C)C(=O)N[C@@H](CCCNC(=N)N)C(=O)N[C@@H](C)C(=O)N[C@@H](CCC(=O)O)C(=O)N[C@@H](CCC(N)=O)C(=O)N[C@@H](CC(C)C)C(=O)N[C@@H](C)C(=O)N[C@@H](CCC(N)=O)C(=O)N[C@@H](CCC(N)=O)C(=O)N[C@@H](C)C(=O)N[C@@H](Cc1c[nH]cn1)C(=O)N[C@@H](CO)C(=O)N[C@@H](CC(N)=O)C(=O)N[C@@H](CCCNC(=N)N)C(=O)N[C@@H](CCCCN)C(=O)N[C@@H](CC(C)C)C(=O)N[C@@H](CCSC)C(=O)N[C@@H](CCC(=O)O)C(=O)N[C@H](C(=O)N[C@H](C(N)=O)[C@@H](C)CC)[C@@H](C)CC` [[D-Pro^4, Nle^21,38]-rCRF(4-41)] (H-[dP]PISLDLTFHLLREVLE[Nle]ARAEQLAQQAHSNRKLMEII-NH2), for which the “secretion of ACTH and β-END-LI” value in assay [1] is “stimulates the secretion of ACTH and B-END-LI in an amount greater than oCRF”. Moreover, the “lowering of blood pressure” value in assay [2] was “very significant lowering of blood pressure”.

`CCCC[C@H](NC(=O)[C@H](CCC(=O)O)NC(=O)[C@H](CC(C)C)NC(=O)[C@H](CCCC)NC(=O)[C@H](CCC(=O)O)NC(=O)[C@H](CCCNC(=N)N)NC(=O)[C@H](CC(C)C)NC(=O)[C@H](CC(C)C)NC(=O)[C@H](Cc1c[nH]cn1)NC(=O)[C@H](Cc1ccccc1)NC(=O)[C@@H](NC(=O)[C@H](CC(C)C)NC(=O)[C@H](CC(=O)O)NC(=O)[C@H](CC(C)C)NC(=O)[C@H](CO)NC(=O)[C@@H](NC(=O)[C@@H]1CCCN1C(=O)[C@H]1CCCN1C(=O)[C@H](N)Cc1ccc(O)cc1)[C@@H](C)CC)[C@@H](C)O)C(=O)N[C@@H](C)C(=O)N[C@@H](CCCCN)C(=O)N[C@@H](C)C(=O)N[C@@H](CCC(=O)O)C(=O)N[C@@H](CCC(N)=O)C(=O)N[C@@H](CCC(=O)O)C(=O)N[C@@H](C)C(=O)N[C@@H](CCC(=O)O)C(=O)N[C@@H](CCC(N)=O)C(=O)N[C@@H](C)C(=O)N[C@@H](C)C(=O)N[C@@H](CC(C)C)C(=O)N[C@@H](CC(N)=O)C(=O)N[C@@H](CCCNC(=N)N)C(=O)N[C@@H](CC(C)C)C(=O)N[C@@H](CC(C)C)C(=O)N[C@@H](CC(C)C)C(=O)N[C@@H](CCC(=O)O)C(=O)N[C@@H](CCC(=O)O)C(=O)N[C@@H](C)C(N)=O` [[D-Tyr^3, D-Pro^4, Nle^18,21]-AHC(3-41)] (H-[dY][dP]PISLDLTFHLLRE[Nle]LE[Nle]AKAEQEAEQAALNRLLLEEA-NH2): the “lowering of blood pressure” value in assay [2] is given as “very significant lowering of blood pressure”.

On to “H-SQEPPISLDLTFHLLREMLEMAKAEQEAEQAALNRLLLEEA-NH2 [AHC]”, for which, in assay [1] (maximal (1-5 nM) concentrations), the “secretory response to maximal concentrations” value is “at a plateau level”.

In the case of “H-SQEPPISLDLTFHLLREVLEMTRADQLAQQAHSNRRLLDIA-NH2 [[Arg^23,36]-oCRF]”, in assay [2], the “lowering of blood pressure” value is given as “very significant lowering of blood pressure”.
